From a melting point compilation (Tetko et al.; mined from patent text by program, amines drawn as free bases though some values may be those of a salt)

With `COc1ccc(CC(=Nc2ccccc2)NC(=S)NCCO)cc1` the melting point was 117 to 119 °C. `O=C1CCCCN1Cc1ccc[nH]1` showed a melting point of 106 °C. Work on `O=S(=O)(Cc1ccc(C(O)c2ccc(Cl)cc2)cc1)C(F)(F)F` (stereo unspecified) yielded a melting point of 113 to 115 °C. Work on `COC(=O)c1ccccc1S(=O)(=O)NC(=O)c1cc(C)n(C)n1` yielded a melting point of 176 to 177 °C. With `CCNC(=O)Oc1cnn(C(C)(C)C)c1` the melting point was 77 °C. In the case of `COC(=O)c1cc(-c2ccc(OC)cc2)nn(Cc2ccc([N+](=O)[O-])cc2)c1=O`, the melting point is reported as 215 to 217 °C. With `CN(C(=O)c1cccc2ccccc12)[C@H](Cc1ccc(C(F)(F)F)cc1)[C@@H](O)c1ccc(F)cc1` (racemic) the melting point was 196 to 197 °C. Compound `CCOc1ccccc1C(=O)Nc1cccc(C)c1C(N)=O` has a melting point of 166 to 168 °C. `C=C(C)C(=O)OCCOC(=O)c1ccc2c(c1)C(=O)N(OS(=O)(=O)c1ccc(C)cc1)C2=O` gave a melting point of 113 °C. With `CC(C)(C#N)c1ccc(Cl)nc1` the melting point was 63 to 65 °C. In the case of `O=S1(=O)c2ccccc2NC2CCCN21` (stereo unspecified), the melting point is reported as 149 to 154 °C. `Brc1ccc(OCc2ccccn2)cc1/C=C/c1cc(/C=C/c2ccc3cc[nH]c3c2)[nH]n1` showed a melting point of 100 to 106 °C. Work on `O=C(NO)c1ccc(CNC(=O)c2[nH]c(-c3ccccc3)cc2-c2ccc(C(F)(F)F)cc2)cc1` yielded a melting point of 137 to 138 °C. With `N#Cc1ccc(OCc2cnsc2)cc1OC(C(=O)O)c1ccccc1Cl` (racemic) the melting point was 194 to 197 °C. Work on `O=C(O)CN1CCCCC1` yielded a melting point of 185 to 187 °C. For `Cc1c(C(=O)c2ccccc2)ccc(O)c1CC(=O)O`, the melting point was 212 °C. In the case of `CCSc1nc2c(C(=O)OCOC)sc(C)c2[nH]1`, the melting point is reported as 128 to 130 °C. Work on `CC[C@H](Cc1sccc1Cl)Nc1ncnc2c1ncn2[C@@H]1C[C@H](CF)[C@@H](O)[C@H]1O` yielded a melting point of 143 °C. `CC(C)Oc1ccc(C(=O)n2nc(Nc3ccc(OCc4ccccc4)cc3)nc2N)cc1` gave a melting point of 79 to 81 °C. With `CC(=O)N1C(=O)N(c2cc(Cl)cc(Cl)c2)C(=O)[C@]12CNC[C@H]2c1ccc(C#N)cc1` (relative stereo) the melting point was 125 °C. For `FC(F)(F)c1cccc2nc3c4ccccc4c4ccccc4c3nc12`, the melting point was 195 to 196 °C. Work on `CCOC(=O)n1nc2c(c1N)CN(C(=O)N[C@H](CN(C)C)c1ccccc1)C2(C)C` yielded a melting point of 96 to 97 °C. In the case of `CCOC(=O)c1ccc(N=C(Nc2ccc(C(=O)OCC)cc2)c2ccc(OC)cc2)cc1`, the melting point is reported as 145 to 146 °C. With `CCCCc1oc2ccccc2c1C(=O)N(C)Cc1ccc2cc(O)ccc2c1` the melting point was 110 to 113 °C. For `C#CCOc1ccc2cc(C(=O)OCC)c(=O)oc2c1`, the melting point was 252 °C. Compound `O=c1c2ccccc2n(CCCCCl)c2ccc(Cl)cc12` has a melting point of 101 to 106 °C. Work on `O=C(O)COc1cc(F)cc(F)c1C(=O)NCc1ccc(Br)cc1F` yielded a melting point of 158 to 159 °C. Work on `O=C(O)c1ccc(-c2nc(-c3ccc(C(F)(F)F)cc3)no2)c([N+](=O)[O-])c1` yielded a melting point of 233 to 234 °C. `O=C1NCCCN1C1CCN(CC(O)COc2ccccc2Cl)CC1` (stereo unspecified) gave a melting point of 150 to 153 °C. `CC#CCOc1ccc(SC(C(=O)NO)C(C)C)cc1` (stereo unspecified) showed a melting point of 128 °C. For `FC(F)(F)Oc1ccc2nc(NC(=S)Nc3ccccc3)sc2c1`, the melting point was 234 °C. Compound `Cc1ccc2c(n1)CCCC2(O)c1ccccc1` (stereo unspecified) has a melting point of 130 to 134 °C. Compound `CCCCCCCCOc1ccc(-c2ccc(C(C)O)cc2)cc1` (single isomer, unassigned; (-)) has a melting point of 124 °C. For `CCCC1Cc2c3c(c(C)c(C)c2C1=O)OC(C(=O)O)C3` (stereo unspecified), the melting point was 161 °C. Compound `CCOC(=O)C[C@H](NC(=O)/C=C/Sc1ccccc1)C(=O)OCC` has a melting point of 100 to 102 °C. Compound `CCSC1=NCC(=O)N1c1ccc(F)cc1` has a melting point of 114 to 115 °C. In the case of `Cc1nc2sccn2c1C1=NNC(=O)CO1`, the melting point is reported as 274 to 275 °C. Compound `COP(=O)(Cc1cc(C(C)(C)C)c(O)c(C(C)(C)C)c1)C1CCCCC1` (stereo unspecified) has a melting point of 149 to 150 °C. With `CC(C)CCC(=O)NC1(C(=O)NC2N=C(C(C)(C)C)c3ccccc3N(C)C2=O)CCCC1` (stereo unspecified) the melting point was 175 to 178 °C. In the case of `O=C(NC1CCCc2ccccc21)c1ccc2cnccc2n1` (stereo unspecified), the melting point is reported as 164 to 165 °C. `Fc1cc(OCCBr)ccc1OCc1ccccc1` showed a melting point of 63 to 65 °C. Compound `CCN1CCc2ccc(Nc3ncc(Cl)c(NCCCC(=O)NC)n3)cc2CC1` has a melting point of 135 °C. Compound `Cn1nc(C(F)(F)F)n(-c2ccc(F)cc2)c1=S` has a melting point of 94 to 96 °C. `Nc1nc(Cl)c(CCCl)c(Cl)n1` showed a melting point of 210 to 213 °C. With `CCCCCC=CCC=CCCCCCCCCBr` the melting point was 35 °C. Compound `CCCCC1=C(C#N)C(c2cccc3nonc23)c2c[nH]nc2N1` (stereo unspecified) has a melting point of 200 °C. With `Cc1oc(-c2ccccc2)nc1CCC(=O)c1ccc(CCC2OC(=O)NC2=O)cc1` (stereo unspecified) the melting point was 173 to 174 °C. With `Cc1cc2c(cc1C1=NNC(=O)CC1C)N(C)C(=O)C(C)O2` (stereo unspecified) the melting point was 190 to 192 °C. With `O=S(=O)(F)C=CNc1ccc(C(F)(F)F)cc1` the melting point was 71 to 73 °C. Work on `O=c1[nH]c2ccc(CCN3CCN(c4cccc5ccccc45)CC3)cc2o1` yielded a melting point of 282 to 285 °C. With `CCCC1=C(C#N)C(c2ccccc2Cl)c2c[nH]nc2N1` (stereo unspecified) the melting point was 248 °C. Work on `O=S(=O)(NC1CC1)c1ccc(Nc2nc(OCC3CCCCC3)c3nc[nH]c3n2)cc1` yielded a melting point of 220 to 221 °C. With `Cc1cc2c(-c3cccnc3Cl)nc(O)nc2s1` the melting point was over 300 °C. Work on `CC(=O)OC1CSC(Oc2cccc(-c3cnn(C)c3)c2)C(OC(C)=O)C1OC(C)=O` (stereo unspecified) yielded a melting point of 140 °C. In the case of `COC(=O)C=C1C[N+]([O-])=C(c2ccccc2)c2cc(Cl)ccc2N1`, the melting point is reported as 215 to 216 °C. For `CCOC(=O)Cn1c2c([nH]c(=O)c1=O)CCC1=C2C=C(n2ccc(C=O)c2)CC1`, the melting point was over 250 °C. Work on `O=C1OCCC12Sc1ccccc1C2=O` (stereo unspecified) yielded a melting point of 125 to 127 °C. Compound `Cc1ccc(C=O)c(OCc2ccc(OCc3nc(-c4ccccc4)oc3C)cc2)n1` has a melting point of 114 to 115 °C. Work on `CCCC[C@H](NC(=O)[C@H](CC(C)C)NC(=O)COc1ccc(OC)cc1)C(=O)CSCc1ccco1` yielded a melting point of 86 to 88 °C. Compound `CCS(=O)(=O)Oc1cccc([N+](=O)[O-])c1` has a melting point of 110 °C. Work on `Cc1cc(C=NN2CCNC2=O)no1` yielded a melting point of 195 to 197 °C. For `O=C(O)CCSSc1ccccc1`, the melting point was 58 °C. Compound `CCOC(=O)c1cc2c(nc(C)n2C)c(O)c1CCC(O)c1ccccc1` (stereo unspecified) has a melting point of 193 to 195 °C. Work on `CC(C)(C)OC(=O)NC1CCCCCC=CC2CC2(C(=O)NS(=O)(=O)C2CC2)NC(=O)C2CC(OC(=O)c3ccc(CC(=O)O)cc3)CN2C1=O` (stereo unspecified) yielded a melting point of 154 to 156 °C. `O=C(O)Cc1ccc(NC(=O)C(COc2ccc(Cl)cc2)NS(=O)(=O)c2ccc(Cl)cc2)cc1` (racemic) gave a melting point of 205 to 207 °C. For `COc1cc(C)nc(-c2ccc(C)cc2)n1`, the melting point was 66 to 67 °C. Compound `CC(=O)N1CCN(CCNc2ncc3ncnc(Nc4ccc(F)c(Cl)c4)c3n2)CC1` has a melting point of 196 to 198 °C. With `Cc1cc(CNC(=O)c2cc(-c3ccc(C(C)(C)C)cc3)nn2CC(=O)c2ccccc2)ccc1OC(C)(C)C(=O)O` the melting point was 116 °C. With `Cc1cc(Br)c([N+](=O)[O-])c(Br)n1` the melting point was 118 to 120 °C. In the case of `N#CN=C(Nc1cnc(Cl)c(N)c1)NC1(c2ccccc2)CCC1`, the melting point is reported as 220 to 221 °C. For `NC(=O)c1sc(-n2cnc3cnc(Cl)cc32)cc1OCc1ccccc1C(F)(F)F`, the melting point was 248 to 249 °C. Compound `CCn1ccc2nc(N3CCN(c4ncc5cc(OC)c(OC)cc5n4)CC3)ncc2c1=O` has a melting point of 259 to 262 °C. Compound `CC(C)(O)c1ccc(CNC(=O)c2cccnc2Oc2ccc(F)cc2F)cc1` has a melting point of 92 to 94 °C. For `CCCCCCCc1cn2cc(-c3ccc(O)cc3)nc2s1`, the melting point was 122 °C. Work on `CNn1cc(C(=O)O)c(=O)c2ccc(C)nc21` yielded a melting point of 215 to 217 °C. For `CC(=O)SCCNC(=O)CCNC(=O)OCc1ccccc1`, the melting point was 83 to 108 °C. For `COc1ccc(-c2coc3cc(OC(C)C)ccc3c2=O)cc1`, the melting point was 245 to 246 °C. `CCOP(=O)(OCC)c1cccc(C)c1I` showed a melting point of 56 to 58 °C. Work on `C=CCOc1cc(C)c(OC(C)=O)c(C)c1C` yielded a melting point of 40 to 41 °C. In the case of `NC1=NC(c2ccc(F)cc2)CO1` (stereo unspecified), the melting point is reported as 116 to 121 °C. In the case of `CC(C)(C)OC(=O)[C@H](CC(=O)c1ccc2oc3ccccc3c2c1)NC(=O)C(F)(F)F`, the melting point is reported as 92 to 94 °C. Compound `CC(CO)NC(=O)COc1ccc(CCNS(=O)(=O)c2ccccc2)cc1` (stereo unspecified) has a melting point of 90 to 91 °C. `O=C(Cn1c(-c2ccc(Cl)cc2)nc2cccnc21)NC1CCCC1` showed a melting point of 260 to 261 °C. For `CCOC(=O)c1ccc(NCCCCCCc2ccccc2)cc1`, the melting point was 69.5 to 72.5 °C. Work on `COc1ccc2nc(-c3c[nH]c4ccccc34)[nH]c(=O)c2c1` yielded a melting point of 311 to 312 °C. `CCOC(=O)CCc1nnc(CNC(=O)c2ccc(Cl)c(Cl)c2)n1-c1sc(CC)cc1C(=O)c1ccccc1Cl` showed a melting point of 153 to 155 °C. `CCOC(=O)c1cn(-c2ccc(Cl)cn2)cn1` gave a melting point of 163 to 164 °C. `COCCNC(=O)c1c(O)c2ccccc2n(C)c1=N` showed a melting point of 208 to 210 °C. `Cc1noc(NC(=O)N2CCN(c3cncc(-c4ccc(F)cc4F)n3)CC2)c1C` gave a melting point of 225 to 226 °C. `Cn1ccc(NC(=O)c2cc(C#N)cc(C(F)(F)F)n2)n1` gave a melting point of 190 °C. Work on `N#CN1c2ccccc2CC(O)c2ccccc21` (stereo unspecified) yielded a melting point of 117 to 118 °C. With `CCOC(=O)c1ccc2n1Cc1ccccc1N(C(=O)c1ccc(NC(=O)c3ccc(Cl)cc3Cl)c(C)c1)C2` the melting point was 174 to 184 °C. In the case of `COc1cc(N2CCN([C@H]3CC[C@H](c4cn(C)c5ccc(C#N)cc54)CC3)CC2)c2ncccc2c1Cl`, the melting point is reported as 215 to 216 °C. Compound `COc1ccc(-c2cc(CN)c(=O)n(Cc3ccc(Cl)cc3)n2)cc1F` has a melting point of 128 to 131 °C. Compound `CC(=O)c1cccc(-c2cc3c4cc(C)ccc4[nH]c3n(C)c2=O)c1` has a melting point of 258 to 260 °C. Work on `O=C(O)COC1=C(Cc2ccc3c(Cl)cccc3c2)C(=O)CCC1` yielded a melting point of 236 to 238 °C. With `COc1cc(Cl)cc(CSCCNC(=O)c2c(Cl)cccc2Cl)c1` the melting point was 83 to 84 °C. `COc1ccc(C=Cc2nc3c(c(=O)n(C)c(=O)n3C)n2C)cc1` showed a melting point of over 320 °C. `COc1ccc(C(C)C(=O)O)cc1[N+](=O)[O-]` (stereo unspecified) gave a melting point of 89 to 90 °C. `CCOC(=O)c1ncn2c1CN=C(Cl)c1cc(OC)ccc1-2` showed a melting point of 186 °C. Compound `Cc1ccc(Sc2cccc(-c3nc(=O)c4ccccc4s3)n2)cc1` has a melting point of 177 to 178 °C.
